Test results as given in patent publication US7109181B2, “Joint lubrication with P2Y purinergic receptor agonists” (Inspire Pharmaceuticals, Inc., priority 2001, dated 2006).

System: synovial fibroblasts
Test: Measurement of cytosolic calcium in cultured synovial fibroblasts (Fluo-3 AM, FLIPR)
Assay type: cell-based
Conditions: synovial fibroblasts stimulated with increasing concentrations of P2Y receptor agonists; FIG. 1
Excerpt: The pharmaceutical utility of compounds of this invention is indicated by the cytosolic calcium assay for P2Y2 and other P2Y receptor activity. This widely used assay, as described in Pendergast, et al. (2001) (Bioorg. Med. Chem. Lett. 11, 157-160), relies on the measurement of increased cytosolic calcium levels to determine the biological activity of compounds that activate receptors linked via G-proteins to phospholipase C. The efficacy of these compounds is reflected in their ability to alter and/or enhance the secretory activity of the joints, including but not limited to, the knee, hip, and shoulder, to effectuate the agent's target response. The target response is the improvement of joint lubrication and movement.
A conventional technique was used to detect increases in cytosolic calcium induced by P2Y receptor agonists, a technique familiar to those skilled in the art. Cells were seeded in 96-well plates and used for cytosolic calcium assays. On the day of the assay, the growth medium was aspirated and replaced with a solution of Fluo-3 AM (2.5 μM final concentration) in an assay buffer consisting of (mM): KCl (10), NaCl (118), CaCl2 (2.5), MgCl2 (1), HEPES (20), glucose (10), pH 7.4. Probenecid (Sigma Chemical Co.) was added to the dye load and dye wash medium at a working concentration of 2.5 mM to increase dye retention in the cells. After a 60 minute incubation with Fluo-3 AM at 25° C., cells were washed free of dye (Columbus Plate Washer, TECAN U.S., Inc., Research Triangle Park, N.C.) and were stimulated with increasing concentrations of P2Y receptor agonists. Intracellular calcium levels were simultaneously monitored in each well by measuring the changes in fluorescence intensity using the FLIPR (Molecular Devices Corp., Sunnyvale, Calif.).
Synovial fibroblasts were subjected to the cytosolic calcium assay described above. […] The induction of increases in cytosolic calcium by ATP and UTP in synovial fibroblasts indicated the pharmaceutical utility of P2Y2 receptor agonists in the joint.

Compound | effect on cytosolic calcium levels
CSc1nc(N)c2ncn([C@@H]3O[C@H](COP(=O)(O)OP(=O)(O)O)[C@@H](O)[C@H]3O)c2n1 [2-methylthioADP, reference compound] | did not alter cytosolic calcium concentration
Nc1ncnc2c1ncn2[C@@H]1O[C@H](COP(=O)(O)OP(=O)(O)OP(=O)(O)O)[C@@H](O)[C@H]1O [ATP, adenosine-5′-triphosphate] | stimulate increases in cytosolic calcium
O=c1ccn([C@@H]2O[C@H](COP(=O)(O)OP(=O)(O)OP(=O)(O)O)[C@@H](O)[C@H]2O)c(=O)[nH]1 [UTP, uridine-5′-triphosphate] | stimulate increases in cytosolic calcium
